Structures are written as SMILES.

IDH1 R132H, sequence (O75874 whole entry R132H): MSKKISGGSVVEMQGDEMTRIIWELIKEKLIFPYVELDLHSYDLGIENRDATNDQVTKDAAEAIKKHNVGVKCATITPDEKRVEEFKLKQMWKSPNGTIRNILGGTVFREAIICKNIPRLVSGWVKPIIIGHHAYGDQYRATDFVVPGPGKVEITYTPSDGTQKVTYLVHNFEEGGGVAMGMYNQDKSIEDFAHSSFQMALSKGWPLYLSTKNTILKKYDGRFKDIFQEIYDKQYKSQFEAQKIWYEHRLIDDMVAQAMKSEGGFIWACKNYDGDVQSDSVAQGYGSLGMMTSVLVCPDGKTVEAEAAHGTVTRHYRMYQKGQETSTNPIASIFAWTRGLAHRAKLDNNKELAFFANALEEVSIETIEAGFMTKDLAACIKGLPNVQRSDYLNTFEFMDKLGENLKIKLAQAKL

One experiment has as its target IDH1 R132H (Homo sapiens (Human), UniProt O75874, R132H). As to the kind of experiment: Assays for IDH1 R132H Inhibitors (NADPH/aKG, resazurin detection). The class given is biochemical. The settings on record: IDH1 R132H enzyme, Table 2; read-out: IDHR132H Activity. Here is the method: Assays were conducted in a volume of […] assay buffer (150 mM NaCl, 10 mM MgCl2, 20 mM Tris pH 7.5, 0.03% bovine serum albumin) as follows in a standard 384-well plate: To 25 ul of substrate mix (8 uM NADPH, 2 mM aKG), 1 μl of test compound was added in DMSO. […] The reaction was incubated for 50 minutes at room temperature, then 25 μl of detection mix (30 μM resazurin, […]) was added and the mixture further incubated for 5 minutes at room temperature.
As to `COc1cccc(CC(=O)N2CCN(c3nc(C4CCCCC4)c4c(c3C#N)CCOC4)C[C@H]2C)c1` [Compound 189, (R)-8-cyclohexyl-6-(4-(2-(3-methoxyphenyl)acetyl)-3-methylpiperazin-1-yl)-3,4-dihydro-1H-pyrano[3,4-c]pyridine-5-carbonitrile], the IC50 was 1000 to 10000 nM.

Regarding `CC(=O)N1CCN(c2nc(C3CCCCC3)c3c(c2C#N)CCOC3)C[C@H]1C` [Compound 362, (R)-6-(4-acetyl-3-methylpiperazin-1-yl)-8-cyclohexyl-3,4-dihydro-1H-pyrano[3,4-c]pyridine-5-carbonitrile], the IC50 is 1000 to 10000 nM. As to `CC(C)[C@@H]1CN(c2nc(C3CC3)c3c(c2C#N)CC(C)(C)OC3)CCN1C(=O)Cn1cc(Br)cn1` [Compound 415, (R)-6-(4-(2-(4-bromo-1H-pyrazol-1-yl)acetyl)-3-isopropylpiperazin-1-yl)-8-cyclopropyl-3,3-dimethyl-3,4-dihydro-1H-pyrano[3,4-c]pyridine-5-carbonitrile], the IC50 lay within 500 to 1000 nM. `Cc1occc1C(=O)N1CCN(c2nc(C(C)C)c3c(c2C#N)CC(C)(C)OC3)C[C@H]1C` [Compound 163, (R)-8-isopropyl-3,3-dimethyl-6-(3-methyl-4-(2-methylfuran-3-carbonyl)piperazin-1-yl)-3,4-dihydro-1H-pyrano[3,4-c]pyridine-5-carbonitrile]: the IC50 was in the range of 500 to 1000 nM. Still for that read-out and setting: under `COCCC(=O)N1CCN(c2nc(C3CC3)c3c(c2C#N)CC(C)(C)OC3)C[C@@H]1CC(C)C` [Compound 389] stands 1000 to 10000 nM. `Cc1nc2ccccn2c1C(=O)N1CCN(c2nc(C(C)C)c3c(c2C#N)CC(C)(C)OC3)C[C@H]1C` [Compound 220, (R)-8-isopropyl-3,3-dimethyl-6-(3-methyl-4-(2-methylimidazo[1,2-a]pyridine-3-carbonyl)piperazin-1-yl)-3,4-dihydro-1H-pyrano[3,4-c]pyridine-5-carbonitrile]: the IC50 was in the range of 1000 to 10000 nM. On to `CC1(C)Cc2c(C#N)c(N3CCN(C(=O)c4ccoc4)C(c4ccccc4)C3)nc(C3CC3)c2CO1` (stereo not drawn) [Compound 156], for which the IC50 lay within 1000 to 10000 nM. The same measure, in the same setting: to `COc1cccc(CC(=O)N2CCN(c3nc(C(C)C)c4c(c3C#N)CC(C)(C)OC4)C[C@H]2C)c1` [Compound 221, (R)-8-isopropyl-6-(4-(2-(3-methoxyphenyl)acetyl)-3-methylpiperazin-1-yl)-3,3-dimethyl-3,4-dihydro-1H-pyrano[3,4-c]pyridine-5-carbonitrile] belongs 1000 to 10000 nM; to `CC(C)c1nc(N2CCN(C(=O)c3ccoc3)CC2c2ccccc2)c(C#N)c2c1COC(C)(C)C2` (stereo not drawn) [Compound 178, 6-(4-(furan-3-carbonyl)-2-phenylpiperazin-1-yl)-8-isopropyl-3,3-dimethyl-3,4-dihydro-1H-pyrano[3,4-c]pyridine-5-carbonitrile], 1000 to 10000 nM. As to `C[C@@H]1CN(c2nc(C3CC3)c3c(c2C#N)CC(C)(C)OC3)[C@@H](C)CN1C(=O)Cc1cccs1` [Compound 309], the IC50 lay in the range of 1000 to 10000 nM. `COCCC(=O)N1CCN(c2nc(C3CC3)c3c(c2C#N)CC(C)(C)OC3)CC1COC` (stereo not drawn) [Compound 403, 8-cyclopropyl-6-(3-(methoxymethyl)-4-(3-methoxypropanoyl)piperazin-1-yl)-3,3-dimethyl-3,4-dihydro-1H-pyrano[3,4-c]pyridine-5-carbonitrile]: the IC50 lay within 1000 to 10000 nM. Same read-out and setting: under `CCOC(=O)C1CN(c2nc(C3CCCCC3)c3c(c2C#N)CCOC3)CCN1C(=O)c1ccoc1` (stereo not drawn) [Compound 258, ethyl 4-(5-cyano-8-cyclohexyl-3,4-dihydro-1H-pyrano[3,4-c]pyridin-6-yl)-1-(furan-3-carbonyl) piperazine-2-carboxylate] stands 1000 to 10000 nM; under `CC(C)c1nc(N2CCN(C(=O)Cc3cccc(Cl)c3)[C@H](C)C2)c(C#N)c2c1COC(C)(C)C2` [Compound 161, (R)-6-(4-(2-(3-chlorophenyl)acetyl)-3-methylpiperazin-1-yl)-8-isopropyl-3,3-dimethyl-3,4-dihydro-1H-pyrano[3,4-c]pyridine-5-carbonitrile], 1000 to 10000 nM; under `C[C@@H]1CN(c2nc(C3CCCCC3)c3c(c2C#N)CCOC3)CCN1C(=O)c1cnn2cccnc12` [Compound 261, (R)-8-cyclohexyl-6-(3-methyl-4-(pyrazolo[1,5-a]pyrimidine-3-carbonyl)piperazin-1-yl)-3,4-dihydro-1H-pyrano[3,4-c]pyridine-5-carbonitrile], 1000 to 10000 nM. The same measure, in the same setting: to `CC(C)c1nc(N2CCN(C(=O)c3ccco3)[C@H](C(C)C)C2)c(C#N)c2c1COC(C)(C)C2` [Compound 171, (R)-6-(4-(furan-2-carbonyl)-3-isopropylpiperazin-1-yl)-8-isopropyl-3,3-dimethyl-3,4-dihydro-1H-pyrano[3,4-c]pyridine-5-carbonitrile] belongs less than 500 nM. On the same count and under the same terms, to `CC(C)c1nc(N2CCN(C(=O)Cc3ccccn3)[C@H](C)C2)c(C#N)c2c1COC(C)(C)C2` [Compound 218, (R)-8-isopropyl-3,3-dimethyl-6-(3-methyl-4-(2-(pyridin-2-yl)acetyl)piperazin-1-yl)-3,4-dihydro-1H-pyrano[3,4-c]pyridine-5-carbonitrile] belongs 1000 to 10000 nM. Turning to `CC[C@@H]1CN(c2nc(C3CC3)c3c(c2C#N)CC(C)(C)OC3)CCN1C(=O)c1cscn1` [Compound 293], the IC50 lay within 1000 to 10000 nM. On the same count and under the same terms, under `COCCC(=O)N1CCN(c2nc(C3CCCCC3)c3c(c2C#N)CC(C)(C)OC3)C[C@H]1C` [Compound 312, (R)-8-cyclohexyl-6-(4-(3-methoxypropanoyl)-3-methylpiperazin-1-yl)-3,3-dimethyl-3,4-dihydro-1H-pyrano[3,4-c]pyridine-5-carbonitrile] stands 1000 to 10000 nM; under `CC(C)[C@@H]1CN(c2nc(C3CC3)c3c(c2C#N)CC(C)(C)OC3)CCN1C(=O)COc1cccc(F)c1` [Compound 384], 1000 to 10000 nM; under `CC(C)[C@@H]1CN(c2nc(C3CC3)c3c(c2C#N)CC(C)(C)OC3)CCN1C(=O)c1ccoc1` [Compound 180, (R)-8-cyclopropyl-6-(4-(furan-3-carbonyl)-3-isopropylpiperazin-1-yl)-3,3-dimethyl-3,4-dihydro-1H-pyrano[3,4-c]pyridine-5-carbonitrile], less than 500 nM. For the compound `C#CCNCC(=O)N1CCN(c2nc(C3CC3)c3c(c2C#N)CC(C)(C)OC3)C[C@H]1C(C)C` [Compound 373, (R)-8-cyclopropyl-6-(3-isopropyl-4-(2-(prop-2-ynylamino)acetyl)piperazin-1-yl)-3,3-dimethyl-3,4-dihydro-1H-pyrano[3,4-c]pyridine-5-carbonitrile], the IC50 fell in the range of 1000 to 10000 nM.

As to `Cc1ncoc1C(=O)N1CCN(c2nc(C3CCCCC3)c3c(c2C#N)CCOC3)C[C@H]1C` [Compound 225, (R)-8-cyclohexyl-6-(3-methyl-4-(4-methyloxazole-5-carbonyl)piperazin-1-yl)-3,4-dihydro-1H-pyrano[3,4-c]pyridine-5-carbonitrile], the IC50 fell in the range of 1000 to 10000 nM. As for `CC(C)c1nc(N2CCN(C(=O)c3ccoc3)C(c3ccccc3)C2)c(C#N)c2c1COC(C)(C)C2` (stereo not drawn) [Compound 155, 6-(4-(furan-3-carbonyl)-3-phenylpiperazin-1-yl)-8-isopropyl-3,3-dimethyl-3,4-dihydro-1H-pyrano[3,4-c]pyridine-5-carbonitrile], the IC50 fell in the range of 1000 to 10000 nM. `C[C@@H]1CN(c2nc(C3CCCCC3)c3c(c2C#N)CCOC3)CCN1C(=O)Cc1ccccc1F` [Compound 188, (R)-8-cyclohexyl-6-(4-(2-(2-fluorophenyl)acetyl)-3-methylpiperazin-1-yl)-3,4-dihydro-1H-pyrano[3,4-c]pyridine-5-carbonitrile]: the IC50 was in the range of 1000 to 10000 nM.

Turning to `COc1ccc(NC(=O)N2CCN(c3nc(C4CC4)c4c(c3C#N)CC(C)(C)OC4)C[C@H]2C(C)C)cc1` [Compound 316, (R)-4-(5-cyano-8-cyclopropyl-3,3-dimethyl-3,4-dihydro-1H-pyrano[3,4-c]pyridin-6-yl)-2-isopropyl-N-(4-methoxyphenyl)piperazine-1-carboxamide], the IC50 is 1000 to 10000 nM. For the compound `CCOC(=O)C1CN(c2nc(C(C)C)c3c(c2C#N)CC(C)(C)OC3)CCN1C(=O)CCOC` (stereo not drawn) [Compound 311, ethyl 4-(5-cyano-8-isopropyl-3,3-dimethyl-3,4-dihydro-1H-pyrano[3,4-c]pyridin-6-yl)-1-(3-methoxypropanoyl)piperazine-2-carboxylate], the IC50 is 500 to 1000 nM.

The same experiment, now with this note: IDH1 R132H enzyme, Table 3; read-out: R132H IC50.
For `COCCC(=O)N1CCN(c2nc(C3CC3)c3c(c2C#N)CCN(C(=O)CCO)C3)C[C@H]1C1CC1` [Compound 501, (R)-1-cyclopropyl-3-(3-cyclopropyl-4-(3-methoxypropanoyl)piperazin-1-yl)-′7-(3-hydroxypropanoyl)-5,6,7,8-tetrahydro-2,7-naphthyridine-4-carbonitrile], the IC50 fell in the range of 500 to 1000 nM. On the same count and under the same terms, to `COCCC(=O)N1CCN(c2nc(C3CC3)c3c(c2C#N)CCN(CCO)C3)C[C@H]1C1CC1` [Compound 484, (R)-1-cyclopropyl-3-(3-cyclopropyl-4-(3-methoxypropanoyl)piperazin-1-yl)-7-(2-hydroxyethyl)-5,6,7,8-tetrahydro-2,7-naphthyridine-4-carbonitrile] belongs 500 to 1000 nM; to `CC1(C)Cc2c(C#N)c(N3CCN(C(=O)C4CC4)C(CC(F)(F)F)C3)nc(C3CC3)c2CO1` (stereo not drawn) [Compound 471, 6-(4-(cyclopropanecarbonyl)-3-(2,2,2-trifluoroethyl)piperazin-1-yl)-8-cyclopropyl-3,3-dimethyl-3,4-dihydro-1H-pyrano[3,4-c]pyridine-5-carbonitrile], 500 to 1000 nM; to `CC1(C)Cc2c(C#N)c(N3CCN(C(=O)CC(F)(F)F)C(CC(F)(F)F)C3)nc(C3CC3)c2CO1` (stereo not drawn) [Compound 470, 8-cyclopropyl-3,3-dimethyl-6-(3-(2,2,2-trifluoroethyl)-4-(3,3,3-trifluoropropanoyl)piperazin-1-yl)-3,4-dihydro-1H-pyrano[3,4-c]pyridine-5-carbonitrile], 500 to 1000 nM.
